The values below come from ChEMBL document CHEMBL4020750 (Bioorg Med Chem Lett, 2017).

The nature of data set [1]: Inhibition of Trypanosoma brucei methionyl tRNA synthetase using L-methionine as substrate preincubated for 15 mins followed by substrate addition measured after 120 mins in presence of ATP by Kinase Glo chemiluminescence assay.
Another data set relates to Trypanosoma brucei. The data set is described as follows: Antitrypanosomal activity against Trypanosoma brucei 427 bloodstream forms after 48 hrs by alamar blue assay. It is filed as functional. Conditions: Trypanosoma brucei, 427, 48 h. (In general: The colour change of resazurin is a common sign of viable cells or microbes.)
A short description of data set [2]: Cytotoxicity against human CRL8155 cells after 48 hrs by alamar blue assay. The class given is cell-based. Conditions: crl8155, 48 h.
The next data set relates to HepG2. The data set is described as follows: Cytotoxicity against human HepG2 cells after 48 hrs by alamar blue assay. It is filed as cell-based. Particulars: hepg2, 48 h.
A short description of data set [3]: AUC in mouse at 50 mg/kg, administered through oral gavage by LC-MS analysis. The class given is ADME, organism-based. Particulars: in vivo.
Data set [4] can be described thus: Cmax in mouse at 50 mg/kg, administered through oral gavage by LC-MS analysis. The class given is ADME, organism-based. Also noted: dose 50 mg/kg, route oral. Particulars: in vivo.

As a reminder, the IC50 is the point on the concentration scale where inhibition reaches its midpoint. Regarding `COc1c(Br)cc(Br)cc1CN[C@H]1CCCN(c2nc3nc(Cl)ccc3[nH]2)C1`, the IC50 in data set [1] is below 50 nM. Moreover, in the data set with Trypanosoma brucei (read-out: EC50), the EC50 was 334 nM.

As for `Clc1cc(Cl)c(Cl)c(CN[C@H]2CCCN(c3nc4nc(Cl)ccc4[nH]3)C2)c1`, the IC50 in data set [1] was below 50 nM. Moreover, the EC50 in the data set with Trypanosoma brucei (read-out: EC50) was found to be 354 nM.

The term CC50 denotes the concentration giving 50% cytotoxicity. Low readings indicate greater toxicity to the cells, high ones lower toxicity to the cells. One may read the AUC as the area under the concentration-time curve, a measure of exposure. Read a high AUC as more exposure. As a reminder, the Cmax is the highest concentration seen after dosing. Regarding `Clc1cc(Cl)c2c(c1)C(N[C@H]1CCCN(c3nc4nc(Cl)ccc4[nH]3)C1)CCN2` (some centres not stated), in data set [1], the 50% inhibitory concentration (IC50) came to 89 nM. The EC50 in the data set on Trypanosoma brucei (read-out: EC50) was 57 nM; with Trypanosoma brucei (read-out: pEC50 (converted)) it was 50.1 nM. Besides, the CC50 in data set [2] amounted to 19000 nM; in the data set with HepG2, 40200 nM. The AUC in data set [3] was 15.8 µM·h. The highest level in data set [4] (Cmax) was 14.7 µM.

As to `COC(=O)C(NCCN(C)c1nc2nc(Cl)ccc2[nH]1)c1cc(Cl)cc(Cl)c1` (configuration not stated), in data set [1], the IC50 was 86 nM. In the data set on Trypanosoma brucei (read-out: EC50), the EC50 stood at 5270 nM.

With `C=CCOc1c(Cl)cc(Cl)cc1CN[C@H]1CCCN(c2nc3nc(Cl)ccc3[nH]2)C1`, the IC50 in data set [1] is below 50 nM. In addition, the EC50 in the data set on Trypanosoma brucei (read-out: EC50) is 326 nM.

As for `CCNc1c(Cl)cc(Cl)cc1CN[C@H]1CCCN(c2nc3nc(Cl)ccc3[nH]2)C1`, the IC50 in data set [1] is below 50 nM. Besides, in the data set on Trypanosoma brucei (read-out: EC50), the EC50 amounted to 359 nM.

As for `N#Cc1cc(Cl)cc(CN[C@H]2CCCN(c3nc4nc(Cl)ccc4[nH]3)C2)c1`, the IC50 in data set [1] is below 50 nM. The EC50 with Trypanosoma brucei (read-out: EC50) stood at 111 nM.

Regarding `CC(C)Oc1c(Cl)cc(Cl)cc1CN[C@H]1CCCN(c2nc3nc(Cl)ccc3[nH]2)C1`, in data set [1], the IC50 was 305 nM. The EC50 in the data set with Trypanosoma brucei (read-out: EC50) is 1700 nM.

Turning to `COc1c(Cl)cc(Cl)cc1CN[C@H]1CCCN(c2nc3nc(Cl)ccc3[nH]2)C1`, the IC50 in data set [1] is below 50 nM. Also, the EC50 in the data set on Trypanosoma brucei (read-out: EC50) came out at 357 nM.

With `CN(CCNC(CO)c1cc(Cl)cc(Cl)c1)c1nc2nc(Cl)ccc2[nH]1` (configuration not stated), the IC50 in data set [1] amounted to 101 nM. In the data set with Trypanosoma brucei (read-out: EC50), the EC50 was found to be 995 nM.

Regarding `Clc1cc(Cl)c(OCC2CC2)c(CN[C@H]2CCCN(c3nc4nc(Cl)ccc4[nH]3)C2)c1`, the IC50 in data set [1] is below 50 nM. Moreover, in the data set with Trypanosoma brucei (read-out: EC50), the EC50 was determined as 511 nM.

Take `CN(CCN[C@@H]1CCNc2c(Cl)cc(Cl)cc21)c1nc2nc(Cl)ccc2[nH]1`: in data set [1], the IC50 is below 50 nM. Also, the EC50 was 4 nM in the data set with Trypanosoma brucei (read-out: EC50) and 3.98 nM in the data set with Trypanosoma brucei (read-out: pEC50 (converted)). Further, the CC50 was found to be 18500 nM in data set [2] and 30600 nM in the data set on HepG2. In data set [3], this compound showed an AUC of 2.33 µM·h. In data set [4], the Cmax is 1.3 µM.

Take `CCOc1c(Cl)cc(Cl)cc1CNCCN(C)c1nc2nc(Cl)ccc2[nH]1`: the IC50 in data set [1] was below 50 nM. In addition, the EC50 in the data set with Trypanosoma brucei (read-out: EC50) is 314 nM.

For the compound `CCOc1c(Br)cc(Br)cc1CN[C@H]1CCCN(c2nc3nc(Cl)ccc3[nH]2)C1`, the IC50 in data set [1] was below 50 nM. For the same compound, the EC50 in the data set on Trypanosoma brucei (read-out: EC50) was 40 nM; in the data set with Trypanosoma brucei (read-out: pEC50 (converted)) it was 39.8 nM. For the same compound, the CC50 in data set [2] was 10500 nM; in the data set on HepG2, 18700 nM. The same compound showed an AUC in data set [3] of 3.03 µM·h. For the same compound, the highest level in data set [4] (Cmax) was 2.1 µM.

Regarding `Clc1cc(Br)cc(CN[C@H]2CCCN(c3nc4nc(Cl)ccc4[nH]3)C2)c1`, the IC50 in data set [1] is below 50 nM. Moreover, the values for the EC50 with Trypanosoma brucei (read-out: EC50) and in the data set with Trypanosoma brucei (read-out: pEC50 (converted)) were 71 nM and 63.1 nM, respectively. For the same compound, the CC50 in data set [2] was 43000 nM; with HepG2, above 50000 nM. This compound had an AUC in data set [3] of 78.1 µM·h. In addition, in data set [4], the Cmax was 19.2 µM.

As for `Clc1cc(Cl)c(OC2CC2)c(CN[C@H]2CCCN(c3nc4nc(Cl)ccc4[nH]3)C2)c1`, the IC50 in data set [1] was determined as 389 nM. Further, the EC50 in the data set with Trypanosoma brucei (read-out: EC50) came out at 3120 nM.

Take `Clc1ccc2nc(N3CCC[C@H](NCc4cc(Br)cc(Br)c4)C3)[nH]c2n1`: the IC50 in data set [1] is below 50 nM. The EC50 in the data set with Trypanosoma brucei (read-out: EC50) is 85 nM; with Trypanosoma brucei (read-out: pEC50 (converted)) it was 79.4 nM. The values for the CC50 (in data set [2]; with HepG2) were 47600 nM and 39100 nM, respectively.

As for `CN(CCNC(C(N)=O)c1cc(Cl)cc(Cl)c1)c1nc2nc(Cl)ccc2[nH]1` (configuration not stated), the IC50 in data set [1] came to 75 nM. The EC50 with Trypanosoma brucei (read-out: EC50) was 4490 nM.

As to `CCOc1c(Cl)cc(Cl)cc1CN[C@H]1CCCN(c2nc3nc(Cl)ccc3[nH]2)C1`, in data set [1], the IC50 is below 50 nM. For the same compound, the EC50 with Trypanosoma brucei (read-out: EC50) stood at 111 nM.

In the case of `CCOc1c(Br)cc(Cl)cc1CN[C@H]1CCCN(c2nc3nc(Cl)ccc3[nH]2)C1`, in data set [1], the IC50 was below 50 nM. Moreover, the EC50 in the data set with Trypanosoma brucei (read-out: EC50) is 230 nM.

As for `CCCOc1c(Cl)cc(Cl)cc1CN[C@H]1CCCN(c2nc3nc(Cl)ccc3[nH]2)C1`, the IC50 in data set [1] was below 50 nM. The EC50 in the data set with Trypanosoma brucei (read-out: EC50) was 827 nM.

Consider `Oc1c(Cl)cc(Cl)cc1CN[C@H]1CCCN(c2nc3nc(Cl)ccc3[nH]2)C1`, for which the IC50 in data set [1] was below 50 nM. Further, the EC50 in the data set on Trypanosoma brucei (read-out: EC50) was 241 nM.
